From US10654808B2, “Tyrosine kinase inhibitor and pharmaceutical composition comprising same” (GUANGDONG RAYNOVENT BIOTECH CO., LTD., priority 2015, dated 2020) come the findings set out here.

The target in one experiment is T1, VEGFR2 (Homo sapiens, UniProt P35968).
T1 construct: purchased Life technology
Put plainly: Z'-LYTE in vitro enzyme activity assay, VEGFR2. The conditions noted are these: 100 μM ATP, 60 minutes, room temperature; read-out: IC50 detected by Z'-LYTE, VEGFR2. The format is biochemical. Summed up: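 Reaction with 3 nM VEGFR2, 2 μM Tyr1 peptide and 100 μM ATP in HEPES pH 7.5/MgCl2/EGTA/BRIJ-35, 1% DMSO, 60 min at room temperature; development reagent then 60 min at 23° C. Compounds tested at 11 threefold dilutions, 10 μM–0.17 nM final, in duplicate; IC50 from 4-parameter fit of inhibition.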

In a further experiment the target is T2, PDGFRB (Homo sapiens, UniProt P09619).
T2 construct: purchased Millipore
The experiment is described as follows: Z'-LYTE in vitro enzyme activity assay, PDGFRB. Type of experiment: biochemical. The conditions noted are these: 100 μM ATP, 60 minutes, room temperature; read-out: IC50 detected by Z'-LYTE, PDGFRB. Summed up: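 Z′-LYTE FRET kinase assay using 40 nM PDGFRB, 2 μM Tyr4 peptide and 100 μM ATP in HEPES pH 7.5 with Mg2+/Mn2+ and 1% DMSO. The reaction ran 60 min at room temperature, followed by development for 60 min at 23 °C. IC50 values came from 4-parameter fits over 11 concentrations (10 μM–0.17 nM).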

The subject of the next experiment is Calu 6 Transplant model. The experiment is described as follows: Tumor growth inhibition (TGI), Calu 6 transplant model in mice. Type of experiment: in vivo. The conditions noted are these: QD. The procedure:
The evolution and growth trends of the tumor was evaluated by the relationship between tumor volume and time. The long axis (L) and short axis (W) of the subcutaneous tumor were measured twice a week by the caliper and the volume of the tumor (TV) was calculated by the formula ((L×W^2)/2). TGI was calculated by the difference between the median tumor volume of the mice in the solvent group and the median tumor volume of the mice in the drug group expressed as a percentage of the tumor volume in the solvent control group
Calculated by the following formula: % TGI=((intermediate tumor volume (control)−intermediate tumor volume (administration group))/intermediate tumor volume (control group))×100%
The original statistical analysis was performed by repeated variance analysis, and then a multiple comparisons were performed using the Scheffe psot hoc test method. Individual solvent (0.5% methylcellulose+0.2% Tween aqueous solution) was a negative control.

Another experiment deals with HUVEC. The experiment is described as follows: CellTiter-Glo luminescent cell viability assay, HUVEC stimulated with hVEGF-165. The conditions noted are these: Homo sapiens, hVEGF-165 20 ng/ml, 72 hours, read-out: IC50 detected by CellTiter-Glo, HUVEC. Type of experiment: cell-based. The procedure: The intracellular ATP changes were measured by CellTiter-Glo® Luminescent Cell Viability Assay. The IC50 value of the compounds was used as an index to evaluate the inhibitory effect of the compounds on HUVEC in vitro.
HUVEC cell line (ATCC), EGM-2 BulletKit (Lonza), hVEGF-165 (Cell Signaling), trypsin (Invitrogen), DPBS (Hyclone), 384 cell plate (Greiner), 384 compound plate (Greiner), CO2 incubator (Thermo), centrifuge (Eppendorf), Vi-cell cell counter (Beckman Coulter), Bravo Automatic Liquid Workstation (Agilent), Envision (Perkin Elmer)
B: Cell plating: HUVEC cells were resuspended with starved medium (only containing 2% FBS and 0.1% GA-1000) and diluted to a concentration of 20,000/mL. The diluted cells were added to a 384 plate (Greiner), 50 μl per well. The cell plates were placed in a 37° C., 5% CO2 incubator overnight.
C: Drug addition: the test compounds were diluted 4 times to obtain a total of 10 doses at a final concentration of 10 uM to 0.038 nM, two parallel wells. The middle plate was added with 47.6 uL of starved medium per well. 2.4 μl of compounds was transferred from a gradient dilution compound plate to a middle plate and mixed well. 5 μl of liquid was transferred from the middle plate to a cell plate. Incubate for 1 hour at 37° C. in a 5% CO2 incubator, 5 μl of starved medium containing hVEGF-165 (the final concentration was 20 ng/ml) and Heparin (the final concentration was 1 ng/m) were added and incubated at 37° C. in a 5% CO2 incubator for 72 hours.
D: After 72 hours, 30 μl of assay reagents was added and incubated at room temperature for 10-30 minutes, Envision was used to read the plate.
The reading was converted into suppression rate (%) (Max−Sample)/(Max−Min)*100%. Parameter curve fitting (Model 205 in XLFIT5, iDBS) was used to measure to obtain IC50 data.
For orientation: Cellular ATP, detected with luciferase, serves as a proxy for viable cell number.

A further experiment addresses T3, FGFR1 (Homo sapiens, UniProt P11362).
T3 construct: purchased Life technology
The experiment is described as follows: Z'-LYTE in vitro enzyme activity assay, FGFR1. The format is biochemical. The conditions noted are these: 25 μM ATP, 60 minutes, room temperature; read-out: IC50 detected by Z'-LYTE, FGFR1. Summed up: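 Z′-LYTE FRET assay with 1 nM FGFR1, 2 μM Tyr4 peptide and 25 μM ATP in HEPES pH 7.5 with Mg/Mn, 60 min at room temperature, then development 60 min at 23 °C. Compounds tested at 11 concentrations from 10 μM to 0.17 nM in 1% DMSO. IC50 from 4-parameter fit of inhibition.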

T2 sequence (P09619 33-1106): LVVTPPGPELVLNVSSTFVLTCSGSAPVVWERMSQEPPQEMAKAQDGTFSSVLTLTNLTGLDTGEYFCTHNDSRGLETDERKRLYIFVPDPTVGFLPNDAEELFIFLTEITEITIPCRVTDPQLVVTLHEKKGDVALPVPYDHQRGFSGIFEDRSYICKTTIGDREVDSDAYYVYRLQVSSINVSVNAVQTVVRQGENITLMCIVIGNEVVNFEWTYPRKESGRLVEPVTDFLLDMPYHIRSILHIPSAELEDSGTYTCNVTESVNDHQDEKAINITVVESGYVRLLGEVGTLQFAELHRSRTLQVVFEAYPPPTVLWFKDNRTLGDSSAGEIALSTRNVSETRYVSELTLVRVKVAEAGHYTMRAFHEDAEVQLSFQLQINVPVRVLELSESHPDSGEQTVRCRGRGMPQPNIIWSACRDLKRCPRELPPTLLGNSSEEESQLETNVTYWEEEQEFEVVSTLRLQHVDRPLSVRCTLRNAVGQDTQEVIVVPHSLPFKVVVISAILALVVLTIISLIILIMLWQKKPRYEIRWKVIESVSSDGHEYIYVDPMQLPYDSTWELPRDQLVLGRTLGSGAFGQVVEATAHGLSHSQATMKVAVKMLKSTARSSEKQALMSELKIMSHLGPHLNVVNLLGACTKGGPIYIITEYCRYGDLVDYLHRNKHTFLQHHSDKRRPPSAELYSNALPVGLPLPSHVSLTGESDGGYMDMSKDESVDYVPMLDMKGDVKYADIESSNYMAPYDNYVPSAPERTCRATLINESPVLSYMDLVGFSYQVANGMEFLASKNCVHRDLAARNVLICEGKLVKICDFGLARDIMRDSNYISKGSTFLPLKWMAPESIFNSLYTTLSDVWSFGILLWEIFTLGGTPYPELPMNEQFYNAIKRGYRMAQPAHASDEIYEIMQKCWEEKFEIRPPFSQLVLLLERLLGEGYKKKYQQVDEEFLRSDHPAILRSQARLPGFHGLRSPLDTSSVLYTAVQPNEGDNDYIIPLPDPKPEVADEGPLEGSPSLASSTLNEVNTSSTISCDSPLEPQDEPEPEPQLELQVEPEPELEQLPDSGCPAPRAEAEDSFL
T1 sequence (P35968 20-1356): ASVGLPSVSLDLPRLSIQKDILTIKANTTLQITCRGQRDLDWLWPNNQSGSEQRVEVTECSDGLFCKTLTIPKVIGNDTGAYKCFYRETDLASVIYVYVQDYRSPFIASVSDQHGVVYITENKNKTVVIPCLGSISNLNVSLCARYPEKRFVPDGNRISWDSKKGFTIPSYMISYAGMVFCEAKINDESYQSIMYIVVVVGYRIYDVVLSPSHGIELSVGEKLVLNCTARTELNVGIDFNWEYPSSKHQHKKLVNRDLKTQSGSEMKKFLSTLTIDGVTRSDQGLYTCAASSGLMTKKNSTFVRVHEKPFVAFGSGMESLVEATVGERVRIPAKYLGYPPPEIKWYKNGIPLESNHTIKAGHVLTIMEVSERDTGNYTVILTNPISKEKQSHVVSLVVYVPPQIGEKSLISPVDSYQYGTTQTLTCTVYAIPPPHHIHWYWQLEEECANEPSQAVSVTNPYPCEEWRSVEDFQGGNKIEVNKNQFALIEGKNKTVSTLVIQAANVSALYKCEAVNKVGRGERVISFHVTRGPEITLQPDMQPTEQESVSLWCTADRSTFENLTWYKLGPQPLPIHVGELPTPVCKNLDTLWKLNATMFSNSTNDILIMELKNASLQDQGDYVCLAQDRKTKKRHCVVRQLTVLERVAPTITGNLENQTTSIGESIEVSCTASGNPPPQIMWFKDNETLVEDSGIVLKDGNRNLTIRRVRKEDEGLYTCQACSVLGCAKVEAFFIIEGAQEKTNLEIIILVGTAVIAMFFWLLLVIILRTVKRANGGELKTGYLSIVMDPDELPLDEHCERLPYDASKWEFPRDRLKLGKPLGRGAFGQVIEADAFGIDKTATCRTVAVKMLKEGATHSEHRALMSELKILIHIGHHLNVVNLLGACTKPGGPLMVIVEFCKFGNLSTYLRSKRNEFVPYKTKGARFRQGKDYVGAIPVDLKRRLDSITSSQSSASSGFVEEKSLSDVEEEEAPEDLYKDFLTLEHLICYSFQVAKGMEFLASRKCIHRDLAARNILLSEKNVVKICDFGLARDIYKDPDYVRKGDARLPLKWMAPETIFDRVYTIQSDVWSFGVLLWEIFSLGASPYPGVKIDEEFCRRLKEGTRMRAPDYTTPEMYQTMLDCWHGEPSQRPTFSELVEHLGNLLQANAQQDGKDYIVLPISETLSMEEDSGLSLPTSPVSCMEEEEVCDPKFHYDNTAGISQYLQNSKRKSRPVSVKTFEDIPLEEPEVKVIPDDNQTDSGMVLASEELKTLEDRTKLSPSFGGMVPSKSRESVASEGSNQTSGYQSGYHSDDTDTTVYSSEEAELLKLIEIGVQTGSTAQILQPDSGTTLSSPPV
T3 sequence (P11362 22-822): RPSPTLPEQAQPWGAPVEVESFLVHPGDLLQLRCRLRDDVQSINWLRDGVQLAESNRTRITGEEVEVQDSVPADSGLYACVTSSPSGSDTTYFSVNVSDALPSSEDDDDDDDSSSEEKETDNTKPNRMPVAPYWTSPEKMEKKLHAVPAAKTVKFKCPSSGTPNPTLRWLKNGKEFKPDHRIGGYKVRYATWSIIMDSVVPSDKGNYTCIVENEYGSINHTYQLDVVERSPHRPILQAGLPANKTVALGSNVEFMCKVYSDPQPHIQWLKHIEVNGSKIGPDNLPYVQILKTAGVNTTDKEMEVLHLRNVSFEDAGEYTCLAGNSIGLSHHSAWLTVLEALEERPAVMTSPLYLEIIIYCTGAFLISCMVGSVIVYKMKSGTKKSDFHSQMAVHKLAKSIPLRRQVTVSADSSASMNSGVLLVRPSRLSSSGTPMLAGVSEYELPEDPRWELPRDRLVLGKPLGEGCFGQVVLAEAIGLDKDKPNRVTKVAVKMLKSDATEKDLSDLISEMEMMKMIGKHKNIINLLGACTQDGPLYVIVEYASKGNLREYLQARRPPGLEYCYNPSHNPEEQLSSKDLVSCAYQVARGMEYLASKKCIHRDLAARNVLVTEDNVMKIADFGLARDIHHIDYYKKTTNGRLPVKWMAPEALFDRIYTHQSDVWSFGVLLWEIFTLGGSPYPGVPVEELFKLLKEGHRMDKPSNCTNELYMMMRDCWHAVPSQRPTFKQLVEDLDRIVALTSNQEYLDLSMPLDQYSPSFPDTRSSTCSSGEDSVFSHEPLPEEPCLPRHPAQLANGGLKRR

The IC50 is the point on the concentration scale where inhibition reaches its midpoint. In the case of `COc1cc2nccc(Oc3ccc(NC(=S)NC4CC4)c(Cl)c3)c2cc1C(N)=O` [Example 1], the IC50 on VEGFR2 is below 50 nM; on PDGFRB it was 50 to 200 nM; in the experiment with HUVEC, below 100 nM; at FGFR1, 200 to 1000 nM. For the same compound, in the experiment on Calu 6 Transplant model (50 mg/kg), the “TGI % (last administration)” value is 57%.

On to `[2H]C([2H])([2H])NC(=O)c1coc2cc(Oc3ccnc4cc(OC)c(C(N)=O)cc34)ccc12` [Example 200], for which the concentration for half-maximal inhibition (IC50) at VEGFR2 was below 50 nM; at PDGFRB, below 50 nM; with HUVEC, below 100 nM; on FGFR1 it was 50 to 200 nM. The “TGI % (last administration)” value with Calu 6 Transplant model (100 mg/kg) came to 59%.

With `Cn1cnc(-c2ccc3c(Oc4ccc(NC(=O)NC5CC5)c(Cl)c4F)ccnc3c2)c1` [Example 214], the IC50 at VEGFR2 was below 50 nM; at PDGFRB, 50 to 200 nM; in the experiment on HUVEC it was below 100 nM; at FGFR1 it was below 50 nM.

For the compound `Cn1cncc1-c1ccc2c(Oc3ccc(NC(=O)NC4CC4)c(Cl)c3F)ccnc2c1` [Example 215], the IC50 on VEGFR2 is below 50 nM; at PDGFRB, 50 to 200 nM; with HUVEC it was below 100 nM; on FGFR1 it was 50 to 200 nM.

`CCNC(=O)Nc1ccc(Oc2ccnc3cc(-c4cn(C)cn4)ccc23)c(F)c1Cl` [Example 216]: the concentration for half-maximal inhibition (IC50) on VEGFR2 was below 50 nM; on PDGFRB it was 50 to 200 nM; in the experiment on HUVEC, below 100 nM; at FGFR1, below 50 nM. Besides, in the experiment on Calu 6 Transplant model (10 mg/kg), the “TGI % (last administration)” value amounted to 83%.

Take `Cn1cnc(-c2ccc3c(Oc4ccc(NC(=O)N5CC(F)(F)C5)c(Cl)c4F)ccnc3c2)c1` [Example 218]: the IC50 at VEGFR2 was below 50 nM; on PDGFRB, below 50 nM; in the experiment with HUVEC, 100 to 1000 nM; on FGFR1, 50 to 200 nM.

Take `Cn1cnc(-c2ccc3c(Oc4ccc(NC(=O)N5CCCC5)c(Cl)c4F)ccnc3c2)c1` [Example 219]: the concentration for half-maximal inhibition (IC50) is below 50 nM on VEGFR2, 50 to 200 nM at PDGFRB, below 100 nM in the experiment on HUVEC and below 50 nM at FGFR1.

On to `CCNC(=O)Nc1ccc(Oc2ccnc3cc(-c4cn(C)cn4)ccc23)cc1Cl` [Example 220], for which the IC50 is below 50 nM at VEGFR2, 50 to 200 nM on PDGFRB, below 100 nM with HUVEC and below 50 nM at FGFR1.

As for `Cn1cnc(-c2ccc3c(Oc4ccc(NC(=O)NC5CC5)c(Cl)c4)ccnc3c2)c1` [Example 221], the half-inhibitory concentration (IC50) at VEGFR2 was below 50 nM; on PDGFRB it was 50 to 200 nM; in the experiment with HUVEC it was below 100 nM; on FGFR1, below 50 nM.

In the case of `CCNC(=O)c1coc2cc(Oc3ccnc4cc(-c5cn(C)cn5)ccc34)ccc12` [Example 222], the IC50 was below 50 nM at VEGFR2, 50 to 200 nM at PDGFRB, below 100 nM with HUVEC and below 50 nM on FGFR1.

On to `Cn1cnc(-c2ccc3c(Oc4ccc5c(C(=O)NC6CC6)coc5c4)ccnc3c2)c1` [Example 223], for which the concentration for half-maximal inhibition (IC50) at VEGFR2 was below 50 nM; on PDGFRB it was 50 to 200 nM; in the experiment on HUVEC, below 100 nM; on FGFR1, below 50 nM.

As to `[2H]C([2H])([2H])NC(=O)c1coc2cc(Oc3ccnc4cc(-c5cn(C)cn5)ccc34)ccc12` [Example 224], the IC50 at VEGFR2 was below 50 nM; at PDGFRB, below 50 nM; in the experiment with HUVEC, below 100 nM; at FGFR1 it was below 50 nM.

As for `CNC(=O)c1coc2cc(Oc3ccnc4cc(-c5cn(C)cn5)ccc34)ccc12` [Example 225], the IC50 on VEGFR2 was below 50 nM; at PDGFRB it was 50 to 200 nM; in the experiment with HUVEC, below 100 nM; on FGFR1 it was below 50 nM.
